{"source": "patent US7618988B2", "about": "“Use of substituted aminomethyl chromans” (Merck Patentgesellschaft, priority 2001, dated 2009)", "key": {"parkinsonian monkeys": {"test_system": "parkinsonian monkeys", "conditions": "literature; cited from earlier work"}, "dopamine D4 receptors": {"molecular_target": "dopamine D4 receptors (Homo sapiens, UniProt P21917)", "sequence (P21917 whole entry)": "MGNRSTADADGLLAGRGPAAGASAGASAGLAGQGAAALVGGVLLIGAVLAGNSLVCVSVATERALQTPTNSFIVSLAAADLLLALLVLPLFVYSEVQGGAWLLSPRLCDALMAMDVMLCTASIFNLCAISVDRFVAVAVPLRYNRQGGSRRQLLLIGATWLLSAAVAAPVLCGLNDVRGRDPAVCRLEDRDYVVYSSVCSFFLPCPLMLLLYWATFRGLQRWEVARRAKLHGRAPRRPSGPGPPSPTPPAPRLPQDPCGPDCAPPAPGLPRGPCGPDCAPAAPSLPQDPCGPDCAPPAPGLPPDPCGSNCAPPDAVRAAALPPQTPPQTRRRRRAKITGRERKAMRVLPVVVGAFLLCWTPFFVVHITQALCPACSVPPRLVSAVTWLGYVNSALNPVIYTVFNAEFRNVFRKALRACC", "conditions": "literature statement; cited from earlier work"}, "cataleptic rat": {"test_system": "cataleptic rat", "assay": "reversal of catalepsy in rats", "format": "in vivo", "conditions": "subcutaneous; for ED50: Rattus norvegicus, sc, read-out: ED50 (calculated dose to reverse catalepsy by 50%)", "experimental": "R represents hydrogen or a hydroxyl protecting group, and their optical isomers and pharmaceutically acceptable salts, in particular 2-({[5-(4-fluorophenyl)-pyridin-3ylmethyl]-amino}-methyl)-chroman-4-ol or an optical isomer or a physiologically acceptable salt or solvate thereof, excert an extraordinary potency in reversing catalepsy. Extrapyramidal motor side effects in e.g. rodents are measured by the ability of a drug to induce catalepsy. Catalepsy is defined as a state where an animal continues to remain in an unnormal (nonphysiological ‘uncomfortable’) posture for a long time (e.g.: M. E. Stanley and S. D. Glick, Neuropharmacology, 1996; 15: 393-394; C. J. E. Niemegeers and P. Janssen, Life Sci., 1979, […]). For example, if a hindpaw of a rat is placed on an elevated level, e.g. a platform elevated 3 cm above ground level, a normal rat immediately withdraws the hindpaw from the platform to the ground level. A cataleptic rat remains in this unnatural posture even for minutes."}, "Parkinson patients": {"test_system": "Parkinson patients", "conditions": "literature; cited from earlier work"}, "[1]": {"test_system": "patients with idiopathic Parkinson's disease", "assay": "double-blind study, idiopathic Parkinson's disease", "format": "in vivo, human", "conditions": "add on, 2.5 to 10 mg b.i.d.", "text": "A typical study to investigate the efficacy of the compounds according to the invention in the treatment of idiopathic Parkinson's disease is described in the following. 180 patients of either sex with idiopathic Parkinson's disease participate in a double-blind study. The main inclusion criteria are Hoehn & Yahr stage ≧2.0 (Hoehn H. M. et al, Neurology 1967; 17: 427442), aged 50-80 years, symptom duration of at least 5 years. (2R,4R)-2-({[5-(4-fluorophenyl)-pyridin-3ylmethyl]-amino}-methyl)-chroman-4-ol monohydrochloride hemihydrate or placebo is administered as “add on” to the conventional Parkinson treatment, which is maintained unchanged during the whole study. The dose of blinded medication is titrated over a period of 4 weeks in a range from 2.5 to 10 mg b.i.d. Then the medication is kept constant for 1 week. Before the start of titration and at the end of the treatment period the patients fill a diary card in 30 min. intervals for 48 hours. The diary card differentiates 5 different states: (1) “on” without dyskinesia, (2) “on” with troublesome dyskinesia, (3) “on” with non-troublesome dyskinesia, (4) “off” time, and (5) time asleep (Hauser R A et al., Clin. Neuropharmacol., 2000, 23, 75-81). […]"}, "[2]": {"test_system": "patients with advanced idiopathic Parkinson's disease", "assay": "double-blind study, advanced idiopathic Parkinson's disease with peak-dose dyskinesia", "format": "in vivo, human", "conditions": "add on, 2.5 to 10 mg b.i.d., diary card", "text": "A typical study to investigate the efficacy of the compounds according to the invention for adverse effects in Parkinson's disease is described in the following. 40 patients of either sex with advanced idiopathic Parkinson's disease complicated by “peak-dose” dyskinesia participate in a double-blind study. The main inclusion criteria are Hoehn & Yahr stage ≧2.5 (lit.: Hoehn H. M. et al, Neurology 1967; 17: 427-442), aged 40-75 years, symptom duration of at least 5 years, and a l-dopa treatment duration of at least 3 years. (2R,4R)-2-({[5-(4-fluorophenyl)-pyridin-3ylmethyl]-amino}-methyl)-chroman-4-ol monohydrochloride hemihydrate or placebo is administered as “add on” to the conventional Parkinson treatment, which is maintained unchanged during the whole study. The dose of blinded medication is titrated over a period of 3 weeks in a range from 2.5 to 10 mg b.i.d. Then the medication is kept constant for 3 weeks. Before the start of titration and at the end of the treatment period the patients fill a diary card in 30 min. inervals for 48 hours. The diary card differentiates 5 different states: (1) “on” without dyskinesia, (2) “on” with troublesome dyskinesia, (3) “on” with non-troublesome dyskinesia, (4) “off” time, and (5) time asleep (Hauser R A et al., Clin. Neuropharmacol., 2000, 23, 75-81). The primary outcome variable of the protocol is the change in “on” time with troublesome dyskinesia. […] The other parameters are not changed."}, "MSA patients": {"test_system": "MSA patients", "assay": "study in MSA patients (UPDRS)", "format": "in vivo, human", "conditions": "add on, 2,5 to 20 mg b.i.d.", "experimental": "The study design is similar to that described above for Parkinson's disease. (2R,4R)-2-({[5-(4-fluorophenyl)-pyridin-3ylmethyl]-amino}-methyl)-chroman-4-ol monohydrochloride hemihydrate or placebo is titrated as “add on” to the conventional treatment (dose range 2,5 to 20 mg b.i.d.). After a double-blind dose-finding phase of 3 weeks during which the individual dose is identified for each patient on the basis of tolerability and efficacy, the dose is maintained unchanged for 3 additional weeks. Before the start of titration and at the end of the treatment period a complete UPDRS assessment is performed in each patient (primary outcome measure)."}, "[3]": {"test_system": "schizophrenic inpatients on long-term antipsychotic treatment", "assay": "study in tardive dyskinesia (AIMS)", "format": "in vivo, human", "conditions": "add on, 2,5 to 20 mg b.i.d., vs placebo period", "text": "Tardive dyskinesia is a common adverse effect of long-term treatment with neuroleptics. A typical study to investigate the efficacy of the compounds according to the invention in tardive dyskinesia is described in the following. 32 schizophrenic (DSM-III-R) inpatients aged 25-60 years on long-term stable antipsychotic treatment (duration of at least 5 years) entered the study. (2R,4R)-2-({[5-(4-fluorophenyl)-pyridin-3ylmethyl]-amino}-methyl)-chroman-4-ol monohydrochloride hemihydrate or placebo is administered as “add on” to the antipsychotic treatment, which is kept constant during the whole study. The dose of blinded medication is titrated over a period of 3 weeks in a range from 2,5 to 20 mg b.i.d. Then the medication is maintained under double-blind conditions for 2 weeks. After a 2-week wash-out period, the test drugs are crossed over. Assessments of tardive dyskinesia by means of the Abnormal Involuntary Movement Scale (AIMS, see above) and of Parkinsonian extrapyramidal side effects (UPDRS, see above) are made pretreatment and posttreatment."}}}
{"compound": "Cc1ccc2c(c1)C(N1CCN(C)CC1)=Nc1cccnc1N2", "note": "[8-methyl-6-(4-methyl-1-piperazineyl)-11 H-pyrido[2,3-b][1,4,]benzodiazepine]", "values": [{"measurement": "effects in parkinsonian monkeys", "setting": "parkinsonian monkeys", "result": "beneficial effects"}, {"measurement": "selectivity for the dopamine D4 receptor compared to clozapine", "setting": "dopamine D4 receptors", "result": "much increased selectivity"}, {"measurement": "ED50 (calculated dose to reverse catalepsy by 50%)", "setting": "cataleptic rat", "result": 3, "unit": "mg/kg"}]}
{"compound": "O=C1CC2(CCCC2)CC(=O)N1CCCCN1CCN(c2ncccn2)CC1", "note": "[buspirone]", "values": [{"measurement": "ED50", "setting": "cataleptic rat", "result": 6, "unit": "mg/kg"}, {"measurement": "anti-dyskinetic effect", "setting": "Parkinson patients", "result": "moderate anti-dyskinetic properties"}]}
{"compound": "O=C1c2ccccc2S(=O)(=O)N1CCCCN1CCN(c2ncccn2)CC1", "note": "[ipsapirone]", "values": [{"measurement": "ED50", "setting": "cataleptic rat", "result": 10, "unit": "mg/kg"}]}
{"compound": "(2R,4R)-2-({[5-(4-fluorophenyl)-pyridin-3ylmethyl]-amino}-methyl)-chroman-4-ol monohydrochloride hemihydrate", "values": [{"measurement": "clinical improvement", "setting": "[1]", "result": "significant clinical improvement"}, {"measurement": "efficacy to treat tremor", "setting": "[1]", "result": "efficacy to treat tremor is shown"}, {"measurement": "other diary parameters", "setting": "[2]", "result": "not changed"}, {"measurement": "“on” time with troublesome dyskinesia", "setting": "[2]", "result": "significant reduction"}, {"measurement": "“on” time without dyskinesia", "setting": "[2]", "result": "significantly increase"}, {"measurement": "UPDRS, Parkinson symptoms", "setting": "MSA patients", "result": "significant clinical improvement of Parkinson symptoms"}, {"measurement": "AIMS scores", "setting": "[3]", "result": "significantly lower than during placebo period"}]}
